Assay results: patent publication US20260130395A1, “Water Dispersible Botanical Compositions” (Aquila Black Limited, priority 2021, published 2026)

Assay: Stability of cannabinoid compounds and Vitamin E components in Beverage 1 (AB White) by LCMSMS
Format: physicochemical
Settings: for Stability of Plant-Derived Cannabinoid Compounds in AB White, 8° C.: AB White stored at 8° C.; for Stability of Plant-Derived Cannabinoid Compounds in AB White, 21-25° C.: AB White stored at 21-25° C.

For `CCCCCc1cc2c(c(O)c1C(=O)O)[C@@H]1C=C(C)CC[C@H]1C(C)(C)O2` [D9 THCA, delta-9-tetrahydrocannabinolic acid], the “Stability of Plant-Derived Cannabinoid Compounds in AB White, 8° C.” value (from here on “Stability … 8° C.”) (0 days) was 0.950 µg/mL, the “Stability … 8° C.” value (1 days) was 0.956 µg/mL and the “Stability … 8° C.” value (2 days) was 0.954 µg/mL. The “Stability … 8° C.” value (3 days) was 0.934 µg/mL, the “Stability … 8° C.” value (5 days) was 0.956 µg/mL and the “Stability … 8° C.” value (8 days) was 0.949 µg/mL. For the same molecule, the “Stability … 8° C.” value (9 days) was 0.937 µg/mL, the “Stability … 8° C.” value (10 days) was 0.960 µg/mL and the “Stability … 8° C.” value (11 days) was 0.929 µg/mL. The “Stability … 8° C.” value (12 days) was 0.942 µg/mL, the “Stability … 8° C.” value (15 days) was 0.944 µg/mL and the “Stability … 8° C.” value (16 days) was 0.932 µg/mL. For the same molecule, the “Stability … 8° C.” value (17 days) was 0.951 µg/mL, the “Stability … 8° C.” value (18 days) was 0.950 µg/mL and the “Stability … 8° C.” value (19 days) was 0.959 µg/mL. The “Stability … 8° C.” value (22 days) was 0.960 µg/mL, the “Stability … 8° C.” value (23 days) was 0.931 µg/mL and the “Stability … 8° C.” value (24 days) was 0.926 µg/mL. The “Stability … 8° C.” value (25 days) was 0.957 µg/mL, the “Stability … 8° C.” value (26 days) was 0.956 µg/mL and the “Stability … 8° C.” value (29 days) was 0.939 µg/mL. For the same molecule, the “Stability … 8° C.” value (30 days) was 0.955 µg/mL, the “Stability … 8° C.” value (60 days) was 0.914 µg/mL and the “Stability … 8° C.” value (90 days) was 0.948 µg/mL. The “Stability … 8° C.” value (120 days) was 0.932 µg/mL, the “Stability … 8° C.” value (150 days) was 0.952 µg/mL and the “Stability … 8° C.” value (180 days) was 0.941 µg/mL. For the same molecule, the “Stability … 8° C.” value (210 days) was 0.923 µg/mL, the “Stability … 8° C.” value (240 days) was 0.932 µg/mL and the “Stability … 8° C.” value (270 days) was 0.933 µg/mL. For the same molecule, the “Stability … 8° C.” value (300 days) was 0.939 µg/mL, the “Stability … 8° C.” value (330 days) was 0.909 µg/mL and the “Stability … 8° C.” value (360 days) was 0.913 µg/mL. For the same molecule, the “Stability … 8° C.” value (390 days) was 0.923 µg/mL, the “Stability … 8° C.” value (420 days) was 0.916 µg/mL and the “Stability … 8° C.” value (450 days) was 0.923 µg/mL. The “Stability … 8° C.” value (480 days) was 0.905 µg/mL, the “Stability … 8° C.” value (510 days) was 0.873 µg/mL and the “Stability … 8° C.” value (540 days) was 0.877 µg/mL. For the same molecule, the “Stability … 8° C.” value (570 days) was 0.872 µg/mL, the “Stability of Plant-Derived Cannabinoid Compounds in AB White, 21-25° C.” value (shortened to “Stability … 21-25° C.”) (0 days) was 0.950 µg/mL and the “Stability … 21-25° C.” value (1 days) was 0.960 µg/mL. The “Stability … 21-25° C.” value (2 days) was 0.938 µg/mL, the “Stability … 21-25° C.” value (3 days) was 0.920 µg/mL and the “Stability … 21-25° C.” value (5 days) was 0.958 µg/mL. For the same molecule, the “Stability … 21-25° C.” value (8 days) was 0.937 µg/mL, the “Stability … 21-25° C.” value (9 days) was 0.926 µg/mL and the “Stability … 21-25° C.” value (10 days) was 0.935 µg/mL. For the same molecule, the “Stability … 21-25° C.” value (11 days) was 0.949 µg/mL, the “Stability … 21-25° C.” value (12 days) was 0.935 µg/mL and the “Stability … 21-25° C.” value (15 days) was 0.948 µg/mL. The “Stability … 21-25° C.” value (16 days) was 0.921 µg/mL, the “Stability … 21-25° C.” value (17 days) was 0.919 µg/mL and the “Stability … 21-25° C.” value (18 days) was 0.928 µg/mL. The “Stability … 21-25° C.” value (19 days) was 0.917 µg/mL, the “Stability … 21-25° C.” value (22 days) was 0.947 µg/mL and the “Stability … 21-25° C.” value (23 days) was 0.924 µg/mL. The “Stability … 21-25° C.” value (24 days) was 0.927 µg/mL, the “Stability … 21-25° C.” value (25 days) was 0.948 µg/mL and the “Stability … 21-25° C.” value (26 days) was 0.921 µg/mL. The “Stability … 21-25° C.” value (29 days) was 0.922 µg/mL, the “Stability … 21-25° C.” value (30 days) was 0.934 µg/mL and the “Stability … 21-25° C.” value (60 days) was 0.896 µg/mL. The “Stability … 21-25° C.” value (90 days) was 0.892 µg/mL, the “Stability … 21-25° C.” value (120 days) was 0.894 µg/mL and the “Stability … 21-25° C.” value (150 days) was 0.934 µg/mL. The “Stability … 21-25° C.” value (180 days) was 0.945 µg/mL, the “Stability … 21-25° C.” value (210 days) was 0.913 µg/mL and the “Stability … 21-25° C.” value (240 days) was 0.892 µg/mL. The “Stability … 21-25° C.” value (270 days) was 0.905 µg/mL, the “Stability … 21-25° C.” value (300 days) was 0.888 µg/mL and the “Stability … 21-25° C.” value (330 days) was 0.894 µg/mL. The “Stability … 21-25° C.” value (360 days) was 0.925 µg/mL, the “Stability … 21-25° C.” value (390 days) was 0.907 µg/mL and the “Stability … 21-25° C.” value (420 days) was 0.909 µg/mL. The “Stability … 21-25° C.” value (450 days) was 0.921 µg/mL, the “Stability … 21-25° C.” value (480 days) was 0.873 µg/mL and the “Stability … 21-25° C.” value (510 days) was 0.903 µg/mL. For the same molecule, the “Stability … 21-25° C.” value (540 days) was 0.877 µg/mL and the “Stability … 21-25° C.” value (570 days) was 0.877 µg/mL.
